Reference: PubChem BioAssay AID651717 (Broad Institute, 2012)

Tested on: mESC Bmi1-luciferase reporter, firefly/renilla ratio, 24 h
Assay: Bmi1-luciferase reporter activators in mESC, dose response, esBAF inhibitor project, mouse embryonic stem cells, cherry-pick (AID 651717);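 note: luciferase knocked into Bmi1 locus with EF-1a renilla as cell number control; rising ratio signals esBAF inhibition which derepresses Bmi1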

Structure (SMILES) | AC40 [µM]
Cc1ccc(-c2noc(-c3ccccc3C(=O)N3CCN(C)CC3)n2)cc1 | 11.5
Nc1cccc(N=[N+]([O-])c2cccc(N)c2)c1 | 2.11
Cn1cccc1C(=O)OCc1ccc(C(C)(C)C)cc1 | 4.64
CCCCN1C(=S)NC[C@@H]1Cc1cccc2ccccc12 | 17.3
CN(C)c1ccc(-c2csc(C(O)c3ccc(F)cc3)n2)cc1 (centres undefined) | 1.63
O=C(N/N=C/c1ccc(Cl)cc1)Nc1ccccc1 | 5.34
CC(C)CN1C(=O)c2ccc(C(=O)Nc3nccs3)cc2C1=O | 1.98
CN(C)c1ccc(CNc2nc3cc(-c4ccc(F)cc4)sc3c(=O)n2C)cc1 | 2.12
Cc1ccc(NC(=O)C2CCCN(c3ncccn3)C2)cc1F (centres undefined) | 1.16
CCN(CC)S(=O)(=O)c1cccc(-c2nc3n(n2)Cc2ccccc2-3)c1 | 21.7
CC1(C)Cc2c(c(N3CCCC3)nc3sc(C(=O)Nc4ccccc4)c(N)c23)CO1 | 6.24
Cn1c2nc3ccccc3c-2nc2ccccc21 | 4.33
COc1ccc(Cl)c(-c2cc(C(=O)Nc3ccccc3)[nH]n2)c1 | 0.423
O=C(CCN1C(=O)/C(=C/C=C/c2ccccc2)SC1=S)Nc1cccnc1 | 2.35
CN(c1nc(-c2ccccc2)cs1)C1CCS(=O)(=O)C1 (centres undefined) | 20.3
Cc1ccc(C(=O)CNc2ccccc2)cc1 | 16.6
COc1ccc(C(=O)N2CCc3ccccc32)cc1 | 5.97
Cc1ccc(C)c(N2CCN(C(=O)CCc3nc(-c4ccccc4C(F)(F)F)no3)CC2)c1 | 4.63
O=C(Cc1ccccn1)c1ccc(Cl)cc1 | 3.14
COc1ccc(C(=O)CC(=O)c2ccccc2O)cc1OC | 15.1
O=C(Cc1ccccc1)Nc1nc(-c2cccs2)cs1 | 8.2
COc1ccc(NC(=O)Nc2cccc(C)n2)cc1 | 3.45
CSc1ccc(CNc2ccc(C)c(C)c2)cc1 | 2.83
C=CCNc1oc(-c2ccc(OC)cc2)nc1C#N | 3.54
Cc1ccccc1C(=O)c1cccn1CC(=O)NCc1cccc(Cl)c1 | 13.6

Structure (SMILES) | AC40 [µM]
O=C1NCCC/C1=N/Nc1cc(F)ccc1F | 2.6
O=C(CN1CCCCC1)Nc1nc(-c2ccccc2)cs1 | 11.5
CCC(=O)c1ccc(N2CCCCCC2)c(F)c1 | 4.92
C=CCn1c(O)c(C=Nc2ccccc2)sc1=S | 5.13
O=C(Nc1ccc(Cl)c(Cl)c1)c1ccncc1 | 6.32
COc1cccc(NC(=O)c2ccnc(N3CCC(C(=O)NCc4ccccc4OC)CC3)c2)c1 | 8.36
COc1ccc2oc3cc(Cl)ccc3c(=O)c2c1 | 2.85
CN(C)c1ncnc2c1ncn2-c1ccccc1 | 9.34
C=CCNc1nc(-c2ccc(O)c(C(N)=O)c2)cs1 | 6.2
c1ccc(Cn2cnc3ccccc32)cc1 | 0.984
O=C1CCN(Cc2ccccc2)CCN1CCSc1ccccc1 | 3.08
COc1cc2c(cc1NC(=O)C(C)OC(=O)/C=C/c1ccc(OC(F)F)cc1)oc1ccccc12 (centres undefined) | 3.91
CS(=O)(=O)c1ccccc1C(=O)Nc1ccc(-c2nc3ccccc3[nH]2)cc1 | 3.96
c1ccc(Nc2nc(-c3ccncc3)cs2)cc1 | 2.71
Cn1ccc2c(-c3ccc(C(=O)O)cc3)cc3c(c21)C1CCC3C1 (centres undefined) | 4.09
COc1ccc2nc(C(c3ccc(C)cc3)n3c(-c4ccccc4Br)nc4ccccc43)[nH]c2c1 (centres undefined) | 0.494
CO[C@@H]1CN(C)C(=O)c2ccc(NC(=O)Nc3ccc4c(c3)OCO4)cc2OC[C@@H](C)NC[C@@H]1C | 2.93
COc1ccc(NC(=O)c2cc(F)cc(F)c2)cc1Cl | 4.77
COc1ccc(-c2ccc3oc(-c4ccsc4)cc(=O)c3c2)cn1 | 1.67
Cc1ccc(O)c(CNc2ccccn2)c1 | 16.7
Cc1ccc(CN2CC(C(=O)Nc3cc(C)ccn3)CC2=O)cc1 (centres undefined) | 1.48
O=C(c1cccs1)N(C(=O)c1cccs1)c1ccc(Br)cn1 | 1.09
O=C(Cc1cccs1)Nc1nc2c(s1)CCCC2 | 1.66
Cc1sc(NC(=O)c2cccs2)nc1-c1ccccc1 | 5.47
COc1ccc(Cl)cc1C(=O)Nc1ccc(Br)c(C)n1 | 6.83

Structure (SMILES) | AC40 [µM]
COc1ccccc1Cc1c(-c2ccc(C)cc2)nc2ccc(Cl)cn12 | 1.18
CC1(C)CNC(=O)c2sc(NC(=O)c3ccccc3)nc2C1 | 4.76
Oc1ccccc1C=NN1CCCCCC1 | 1.93
O=C(O)c1cncc(C#CCC2CCCCC2)c1 | 15.6
NC(=O)C1CCN(c2nc(-c3cccc(N)c3)cs2)CC1 | 1.35
COc1cc(C(=O)Oc2ccccc2/C=N/NC(=O)c2ccc(Cl)cc2Cl)cc(OC)c1OC | 1.1
CCc1ccccc1NC(=O)c1cc(-c2cccc(O)c2)on1 | 5.03
CCCCCCCSc1ncnc2[nH]ncc12 | 17.1
O=C(N/N=C/c1cnc2ccccc2n1)c1cccc(F)c1 | 4.89
O=c1ccc2ccc(OCc3ccccc3)cc2o1 | 3.55
c1ccc(Nc2cccc(Nc3ccccc3)n2)cc1 | 4.8
CC(=O)c1sc(Nc2ccc(Oc3ccccc3)cc2)nc1C | 2.08
O=C(Nc1ccc2oc(-c3ccccc3)nc2c1)c1cccs1 | 1.58
Cc1ccc(NC(=O)Nc2cccc(C)n2)c(C)c1 | 6.01
O=C(NC1CCCCC1)c1ccc2ccccc2c1O | 1.27
O=C(CCc1nnc(CCc2c[nH]c3ccccc23)o1)NC1CCC1 | 4.41
COc1ccccc1C(=O)NCC(=O)Nc1ccc2c(c1)CCC2 | 3.24
COC(=O)c1ccc2c(C)c(C3(O)CCCCC3)[nH]c2c1 | 7.47
O=C(Nc1ccc(F)cc1F)NC1CCCCCCC1 | 5.14
O=C(c1ccccc1)c1ccc2ccccc2c1 | 3.04
COc1ccc(C2=Nc3ccccc3NC(=O)C2N(C(=O)c2cnc(C)cn2)c2ccc(N3CCOCC3)cc2)cc1 (centres undefined) | 21.8
O=C(NNC(=O)c1cccc2ccccc12)c1ccc(Cl)cc1Cl | 12.7
N/C(=N\OC(=O)Cc1cccs1)c1ccc(Cl)cc1 | 18.1
COc1ccc(C(=O)Nc2cc3c4c(c2)CC(=O)N4CCC3)c(OC)c1 | 5.13
COc1ccc(Cc2nc(-c3cccc(C)c3)no2)cc1 | 3.63

Structure (SMILES) | AC40 [µM]
Oc1cccc(C=NNc2ccccn2)c1 | 5.37
CC(C)C1C(=O)N(Cc2cn(CCC3OCCCO3)nn2)CCS(=O)(=O)N1Cc1ccc(-c2ccc(Cl)nc2)cc1 (centres undefined) | 17.8
COc1ccc(Nc2cc(C)c3c(O)cccc3n2)cc1 | 3.84
Clc1ccc(-c2cnnc(-c3ccccn3)n2)cc1 | 1.79
CC(C)Cn1cnc2c(SCc3ccccc3)nc(N)nc21 | 8.9
Cc1ccc(C(=O)NCCc2nnc(SCC(=O)Nc3nc(-c4ccccc4)cs3)n2C)cc1 | 17.2
CCS(=O)(=O)n1nc(-c2ccc(Cl)cc2)nc1SC | 4.79
COc1ccc(-c2cc3ccccc3s2)cc1[C@H]1[C@H]2C=CC[C@@H](C)[C@@H]2C(=O)N1Cc1ccccc1 | 1.53
C#CCSc1nnc(-c2ccc(O)cc2)o1 | 8.15
CC(C)C(=O)N1CCN(c2nc3ccc(Cl)cc3s2)CC1 | 3.33
Cc1ccc(C)c(NC(=O)c2cc(-c3ccccc3O)n[nH]2)c1 | 11.5
Cc1ccc(C(=O)CN2C(=O)NC3(CCCCCC3)C2=O)c(C)c1 | 1.63
CCn1ccnc1CN(C)C(=O)c1cc(COc2ccccc2SC)on1 | 8.01
Oc1cccc(/C=N/N2CCCCC2)c1O | 3.47
Cn1c(/N=C(\N)c2ccccc2)nc2ccccc21 | 0.587
O=C(NC1CCCC1)c1cc(-c2ccc(Cl)c(Cl)c2)on1 | 2.8
COc1ccc(OCc2cc(C(=O)N3C[C@H]4CC[C@H]3C4)no2)c(Cl)c1 | 9.24
Cc1ccc(NC(=O)CN2C(=O)N/C(=C/c3ccccc3OCc3cccc(C(=O)O)c3)C2=O)cc1 | 2.65
O=C(CCc1nnc(C2(c3ccc(Cl)cc3)CCC2)o1)N1CCCC1 | 3.99
COc1ccc(Cl)c(-c2cc(C(=O)Nc3ccc(F)cc3)[nH]n2)c1 | 2.11
O=C(Cn1c(/C=C/c2ccccc2)nc2ccccc21)Nc1ccc(F)cc1 | 2.78
COc1cccc(NC(=O)C(=O)NCCC2CCCCN2S(=O)(=O)c2cccs2)c1 (centres undefined) | 3.86
COCOCCn1cc(CN2CCS(=O)(=O)N(Cc3ccc(-c4ccc(Cl)nc4)cc3)C(CC(C)C)C2=O)nn1 (centres undefined) | 34.2
Cc1ccc(OCc2cc(C(=O)N(C)CCc3ccccn3)no2)cc1C | 2.28
O=C(CC(NC(=O)OCc1ccccc1)c1nn[nH]n1)OCc1ccccc1 (centres undefined) | 2.6

Structure (SMILES) | AC40 [µM]
COc1c(C(=O)NNC(=O)c2ccccc2)csc1Br | 0.646
COc1ccccc1N1C(=O)S/C(=C\c2ccc(C)s2)C1=O | 1.95
COc1cccc(/C=N/n2c(N)nc3ccccc32)c1OC | 3.21
CN(C)c1ccc(C(=O)c2ccccc2)cc1 | 2.69
Cn1c(SCc2ccccc2)nnc1-c1c[nH]c2ccccc12 | 17.9
COC(=O)Cc1ccc(OCc2ccc(Cl)nc2)cc1 | 6.74
Cc1ccc(/C(N)=N/OC(=O)CCc2ccccc2)cc1 | 11
CCOC(=O)N1CCN(C(=O)CSCC(=O)Nc2nc(-c3ccc4c(c3)OCO4)cs2)CC1 | 12.1
COc1cc(/C=C2/C(=N)N3N=C(CC(=O)N4CCOCC4)SC3=NC2=O)ccc1OCc1ccc(F)cc1 | 3.4
Cc1ccn2c(CC(C)(C)C)c(-c3ccc(F)cc3)nc2c1 | 1.38
CCC(=O)Nc1cccc(-c2nc3ccccc3o2)c1 | 15.7
O=C(c1ccc(Cl)cc1)c1cnc(Nc2ccccc2)s1 | 1.46
COC(=O)C(Cc1c[nH]c2ccccc12)NC(=O)c1ccc2nc[nH]c2c1 (centres undefined) | 14.7
Cc1ccnc(NC(=O)c2ccc(OCc3c(C)noc3C)cc2)c1 | 3.44
Cc1cccc(NC(=O)CCCc2ccccc2)c1 | 9.57
NC(N)=NC(=O)c1nc(Cl)c(N2CCCCCC2)nc1N | 3.13
COc1ccc2cc(C(=O)N(C)CC(=O)Nc3ccccc3Br)ccc2c1 | 5.86
Nc1ccc2c(c1)C(=O)c1ccc(N)cc1-2 | 0.55
CO[C@@H]1CN(C)C(=O)c2ccc(NC(=O)Nc3ccc4c(c3)OCO4)cc2OC[C@H](C)NC[C@@H]1C | 5
c1ccc(-c2cnnc(N3CCCCC3)n2)cc1 | 1.99
CCn1c(COc2ccccc2C)nc2ccccc21 | 3.51
S=C1NC(c2ccccc2)=NCN1c1ccccc1 | 17.5
COc1ccc(Cc2c(-c3ccccc3)nc3ccc(Br)cn23)c(C)c1 | 8.9
CC1CCCN(C(=O)CNC(=O)c2sc3ccccc3c2Cl)C1 (centres undefined) | 3.96
